ChEMBL document CHEMBL4507292 (2021)

Assays:
[1] = molecular target: Alpha-2B adrenergic receptor (Homo sapiens, UniProt P18089); assay: GPCRScan assay: inhibition of Alpha2B; parameters: radioligand conc. used [nm] 1.5 – 2.0, parental cells HEKT
[2] = system: Tyrosine-protein kinase ABL1 (Homo sapiens), P00519 [F317I]; details: Compound concentration 1000.0 nM
[3] = molecular target: Activin receptor type-2A (Homo sapiens) (UniProt P27037); details: Compound concentration 1000.0 nM
[4] = molecular target: Protein-tyrosine kinase 6 (Homo sapiens) (UniProt Q13882); details: Compound concentration 1000.0 nM
Chain of Protein-tyrosine kinase 6 (Homo sapiens) (Q13882 whole entry, looked up): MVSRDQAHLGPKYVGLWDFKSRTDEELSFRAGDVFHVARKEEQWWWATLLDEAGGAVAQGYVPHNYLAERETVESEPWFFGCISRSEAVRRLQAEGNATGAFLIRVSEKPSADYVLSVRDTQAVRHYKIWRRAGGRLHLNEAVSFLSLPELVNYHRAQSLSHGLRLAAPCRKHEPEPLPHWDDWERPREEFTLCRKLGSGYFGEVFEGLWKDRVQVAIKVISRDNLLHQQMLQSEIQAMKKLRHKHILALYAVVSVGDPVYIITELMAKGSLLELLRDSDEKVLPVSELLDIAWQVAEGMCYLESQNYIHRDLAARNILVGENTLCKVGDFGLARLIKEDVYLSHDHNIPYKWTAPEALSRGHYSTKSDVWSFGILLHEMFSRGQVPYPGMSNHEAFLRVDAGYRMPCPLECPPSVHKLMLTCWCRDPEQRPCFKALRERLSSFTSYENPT

[5] = molecular target: Cyclin-dependent kinase 4 (Homo sapiens) (UniProt P11802); details: Compound concentration 1000.0 nM
[6] = molecular target: Cyclin-dependent kinase-like 2 (Homo sapiens) (UniProt Q92772); details: Compound concentration 1000.0 nM
[7] = molecular target: Macrophage colony-stimulating factor 1 receptor (Homo sapiens) (UniProt P07333); details: Compound concentration 1000.0 nM
[8] = molecular target: Epidermal growth factor receptor (Homo sapiens, UniProt P00533); details: Compound concentration 1000.0 nM
[9] = system: Epidermal growth factor receptor (Homo sapiens), P00533 [UNDEFINED MUTATION]; details: Compound concentration 1000.0 nM
[10] = system: Epidermal growth factor receptor (Homo sapiens), P00533 [L858R]; details: Compound concentration 1000.0 nM
[11] = molecular target: Ephrin type-B receptor 6 (Homo sapiens) (UniProt O15197); details: Compound concentration 1000.0 nM
[12] = molecular target: Mitogen-activated protein kinase 1 (Homo sapiens) (UniProt P28482); details: Compound concentration 1000.0 nM
[13] = molecular target: Focal adhesion kinase 1 (Homo sapiens) (UniProt Q05397); details: Compound concentration 1000.0 nM
[14] = molecular target: Fibroblast growth factor receptor 1 (Homo sapiens) (UniProt P11362); details: Compound concentration 1000.0 nM
[15] = molecular target: Homeodomain-interacting protein kinase 2 (Homo sapiens) (UniProt Q9H2X6); details: Compound concentration 1000.0 nM
[16] = molecular target: Tyrosine-protein kinase JAK2 (Homo sapiens) (UniProt O60674); details: Compound concentration 1000.0 nM
[17] = molecular target: Mitogen-activated protein kinase kinase kinase kinase 3 (Homo sapiens) (UniProt Q8IVH8); details: Compound concentration 1000.0 nM
[18] = molecular target: Serine/threonine-protein kinase MRCK alpha (Homo sapiens) (UniProt Q5VT25); details: Compound concentration 1000.0 nM
[19] = molecular target: Serine/threonine-protein kinase 38 (Homo sapiens) (UniProt Q15208); details: Compound concentration 1000.0 nM
[20] = molecular target: Serine/threonine-protein kinase Nek6 (Homo sapiens) (UniProt Q9HC98); details: Compound concentration 1000.0 nM
[21] = molecular target: Serine/threonine-protein kinase PAK 2 (Homo sapiens) (UniProt Q13177); details: Compound concentration 1000.0 nM
[22] = molecular target: Phosphatidylinositol 3-kinase C2 domain-containing subunit gamma (Homo sapiens) (UniProt O75747); details: Compound concentration 1000.0 nM
[23] = system: Phosphatidylinositol 4,5-bisphosphate 3-kinase catalytic subunit alpha isoform (Homo sapiens), P42336 [H1047L]; details: Compound concentration 1000.0 nM
Chain of Phosphatidylinositol 4,5-bisphosphate 3-kinase catalytic subunit alpha isoform (Homo sapiens), P42336 [H1047L] (P42336 whole entry H1047L, canonical isoform): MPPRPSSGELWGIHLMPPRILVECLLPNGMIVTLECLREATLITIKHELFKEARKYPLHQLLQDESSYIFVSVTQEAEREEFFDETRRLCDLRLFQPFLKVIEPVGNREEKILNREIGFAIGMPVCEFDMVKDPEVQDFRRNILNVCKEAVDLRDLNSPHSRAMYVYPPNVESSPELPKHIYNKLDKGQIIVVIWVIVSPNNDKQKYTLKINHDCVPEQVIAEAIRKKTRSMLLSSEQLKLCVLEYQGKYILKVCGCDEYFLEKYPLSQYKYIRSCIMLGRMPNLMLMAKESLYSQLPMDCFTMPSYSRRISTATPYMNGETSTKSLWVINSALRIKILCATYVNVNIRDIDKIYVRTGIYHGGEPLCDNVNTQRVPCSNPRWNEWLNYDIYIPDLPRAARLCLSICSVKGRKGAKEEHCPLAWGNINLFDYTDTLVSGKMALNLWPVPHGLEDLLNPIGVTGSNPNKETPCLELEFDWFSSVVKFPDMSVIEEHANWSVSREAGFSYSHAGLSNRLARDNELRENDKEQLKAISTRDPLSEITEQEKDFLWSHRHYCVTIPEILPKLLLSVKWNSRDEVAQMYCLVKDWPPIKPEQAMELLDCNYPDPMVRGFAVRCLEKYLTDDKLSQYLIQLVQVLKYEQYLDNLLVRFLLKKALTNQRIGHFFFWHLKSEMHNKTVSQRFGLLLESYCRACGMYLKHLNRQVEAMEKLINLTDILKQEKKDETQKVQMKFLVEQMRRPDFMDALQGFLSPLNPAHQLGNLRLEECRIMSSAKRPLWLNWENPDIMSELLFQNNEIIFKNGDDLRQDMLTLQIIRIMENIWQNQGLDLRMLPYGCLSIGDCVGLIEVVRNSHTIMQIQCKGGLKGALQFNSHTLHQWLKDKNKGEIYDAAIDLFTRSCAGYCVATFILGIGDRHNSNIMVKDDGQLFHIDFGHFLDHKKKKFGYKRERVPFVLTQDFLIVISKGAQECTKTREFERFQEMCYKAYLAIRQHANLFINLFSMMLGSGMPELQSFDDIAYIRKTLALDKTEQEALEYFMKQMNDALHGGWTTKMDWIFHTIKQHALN

[24] = molecular target: Phosphatidylinositol 4,5-bisphosphate 3-kinase catalytic subunit gamma isoform (Homo sapiens) (UniProt P48736); details: Compound concentration 1000.0 nM
[25] = molecular target: Serine/threonine-protein kinase PLK2 (Homo sapiens) (UniProt Q9NYY3); details: Compound concentration 1000.0 nM
[26] = molecular target: Serine/threonine-protein kinase PLK3 (Homo sapiens) (UniProt Q9H4B4); details: Compound concentration 1000.0 nM
[27] = molecular target: Serine/threonine-protein kinase D3 (Homo sapiens) (UniProt O94806); details: Compound concentration 1000.0 nM
Chain of Serine/threonine-protein kinase D3 (Homo sapiens) (O94806 whole entry): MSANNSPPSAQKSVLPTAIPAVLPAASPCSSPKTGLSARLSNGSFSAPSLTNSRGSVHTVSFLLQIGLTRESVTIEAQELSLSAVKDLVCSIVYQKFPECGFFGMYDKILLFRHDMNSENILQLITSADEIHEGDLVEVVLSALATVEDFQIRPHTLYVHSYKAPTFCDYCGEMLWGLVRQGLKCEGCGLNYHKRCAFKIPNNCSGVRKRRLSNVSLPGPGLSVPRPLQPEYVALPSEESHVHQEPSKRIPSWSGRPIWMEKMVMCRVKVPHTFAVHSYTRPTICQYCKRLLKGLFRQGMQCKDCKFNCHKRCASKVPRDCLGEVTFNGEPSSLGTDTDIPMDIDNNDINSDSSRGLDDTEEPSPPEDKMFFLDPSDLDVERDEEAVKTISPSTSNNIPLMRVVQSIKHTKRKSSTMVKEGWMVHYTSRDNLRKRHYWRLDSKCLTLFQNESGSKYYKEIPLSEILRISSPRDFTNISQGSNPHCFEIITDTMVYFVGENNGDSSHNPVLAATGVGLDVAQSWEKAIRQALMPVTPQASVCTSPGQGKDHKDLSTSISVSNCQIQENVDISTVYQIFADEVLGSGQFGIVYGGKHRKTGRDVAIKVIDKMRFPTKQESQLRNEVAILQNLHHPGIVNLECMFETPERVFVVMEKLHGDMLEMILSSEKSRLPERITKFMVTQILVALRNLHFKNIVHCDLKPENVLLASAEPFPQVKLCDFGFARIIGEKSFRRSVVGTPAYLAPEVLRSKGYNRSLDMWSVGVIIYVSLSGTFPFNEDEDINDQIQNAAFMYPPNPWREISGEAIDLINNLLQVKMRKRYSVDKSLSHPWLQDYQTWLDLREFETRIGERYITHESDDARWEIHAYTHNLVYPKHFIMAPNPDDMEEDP

[28] = molecular target: Interferon-induced, double-stranded RNA-activated protein kinase (Homo sapiens) (UniProt P19525); details: Compound concentration 1000.0 nM
[29] = system: Proto-oncogene tyrosine-protein kinase receptor Ret (Homo sapiens), P07949 [V804M]; details: Compound concentration 1000.0 nM
[30] = molecular target: Receptor-interacting serine/threonine-protein kinase 1 (Homo sapiens) (UniProt Q13546); details: Compound concentration 1000.0 nM
[31] = molecular target: Ribosomal protein S6 kinase alpha-1 (Homo sapiens) (UniProt Q15418); details: Compound concentration 1000.0 nM
[32] = molecular target: Ribosomal protein S6 kinase alpha-3 (Homo sapiens) (UniProt P51812); details: Compound concentration 1000.0 nM
Chain of Ribosomal protein S6 kinase alpha-3 (Homo sapiens) (P51812 whole entry): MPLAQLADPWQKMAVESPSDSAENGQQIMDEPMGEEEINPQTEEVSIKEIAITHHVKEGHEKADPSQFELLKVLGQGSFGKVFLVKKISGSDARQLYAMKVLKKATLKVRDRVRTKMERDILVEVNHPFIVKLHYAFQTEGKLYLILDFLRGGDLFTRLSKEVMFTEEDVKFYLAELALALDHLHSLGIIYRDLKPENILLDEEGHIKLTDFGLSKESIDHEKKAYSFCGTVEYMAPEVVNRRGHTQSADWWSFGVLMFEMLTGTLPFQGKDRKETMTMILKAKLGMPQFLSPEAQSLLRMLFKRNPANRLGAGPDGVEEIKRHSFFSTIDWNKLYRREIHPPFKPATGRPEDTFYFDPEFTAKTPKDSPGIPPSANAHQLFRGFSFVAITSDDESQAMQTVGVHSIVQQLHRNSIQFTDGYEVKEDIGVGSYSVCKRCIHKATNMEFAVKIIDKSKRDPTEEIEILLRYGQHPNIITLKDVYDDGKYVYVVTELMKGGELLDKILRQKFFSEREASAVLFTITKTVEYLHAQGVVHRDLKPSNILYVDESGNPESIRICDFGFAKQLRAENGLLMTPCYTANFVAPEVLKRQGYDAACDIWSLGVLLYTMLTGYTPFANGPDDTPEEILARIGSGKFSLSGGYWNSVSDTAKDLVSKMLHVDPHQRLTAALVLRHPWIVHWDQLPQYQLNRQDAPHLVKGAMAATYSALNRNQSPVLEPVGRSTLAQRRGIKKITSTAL

[33] = molecular target: TGF-beta receptor type-2 (Homo sapiens) (UniProt P37173); details: Compound concentration 1000.0 nM
[34] = molecular target: Angiopoietin-1 receptor (Homo sapiens) (UniProt Q02763); details: Compound concentration 1000.0 nM
Chain of Angiopoietin-1 receptor (Homo sapiens) (Q02763 whole entry): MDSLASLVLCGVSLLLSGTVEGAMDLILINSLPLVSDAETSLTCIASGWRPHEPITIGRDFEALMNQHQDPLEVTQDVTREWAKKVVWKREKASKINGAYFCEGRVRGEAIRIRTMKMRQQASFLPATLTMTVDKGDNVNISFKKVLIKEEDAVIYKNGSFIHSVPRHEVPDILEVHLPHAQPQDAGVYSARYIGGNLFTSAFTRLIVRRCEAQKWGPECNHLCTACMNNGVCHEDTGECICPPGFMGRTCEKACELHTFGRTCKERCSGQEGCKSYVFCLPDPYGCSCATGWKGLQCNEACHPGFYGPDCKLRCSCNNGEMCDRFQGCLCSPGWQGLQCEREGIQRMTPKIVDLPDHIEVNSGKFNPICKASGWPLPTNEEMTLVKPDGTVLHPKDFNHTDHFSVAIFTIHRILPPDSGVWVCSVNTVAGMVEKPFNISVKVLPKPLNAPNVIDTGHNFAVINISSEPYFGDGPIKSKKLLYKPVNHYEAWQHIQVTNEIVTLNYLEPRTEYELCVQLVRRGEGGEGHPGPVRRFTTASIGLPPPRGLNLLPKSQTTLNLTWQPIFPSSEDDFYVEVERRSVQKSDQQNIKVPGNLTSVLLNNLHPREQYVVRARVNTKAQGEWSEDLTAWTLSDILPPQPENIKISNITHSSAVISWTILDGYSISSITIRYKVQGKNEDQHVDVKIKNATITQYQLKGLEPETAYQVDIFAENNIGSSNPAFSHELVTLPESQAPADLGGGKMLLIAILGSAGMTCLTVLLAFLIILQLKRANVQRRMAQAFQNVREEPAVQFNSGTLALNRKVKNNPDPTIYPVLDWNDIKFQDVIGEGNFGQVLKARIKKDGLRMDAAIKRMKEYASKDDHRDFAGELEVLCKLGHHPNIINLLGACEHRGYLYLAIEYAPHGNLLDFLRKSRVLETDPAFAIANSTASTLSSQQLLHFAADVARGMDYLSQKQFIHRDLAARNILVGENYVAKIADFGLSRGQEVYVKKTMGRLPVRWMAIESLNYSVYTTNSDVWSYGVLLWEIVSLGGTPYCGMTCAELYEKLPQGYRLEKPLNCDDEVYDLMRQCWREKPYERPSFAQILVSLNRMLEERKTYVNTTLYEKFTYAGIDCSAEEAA

[35] = molecular target: Serine/threonine-protein kinase ULK3 (Homo sapiens) (UniProt Q6PHR2); details: Compound concentration 1000.0 nM
[36] = molecular target: Serine/threonine-protein kinase WNK3 (Homo sapiens) (UniProt Q9BYP7); details: Compound concentration 1000.0 nM
[37] = molecular target: 5-hydroxytryptamine receptor 1D (Homo sapiens) (UniProt P28221); details: Compound concentration 10.0 uM
[38] = molecular target: 5-hydroxytryptamine receptor 2B (Homo sapiens) (UniProt P41595); details: Compound concentration 10.0 uM
[39] = molecular target: T1, D(4) dopamine receptor (Homo sapiens) (UniProt P21917); details: Compound concentration 10.0 uM
T1 sequence (whole entry): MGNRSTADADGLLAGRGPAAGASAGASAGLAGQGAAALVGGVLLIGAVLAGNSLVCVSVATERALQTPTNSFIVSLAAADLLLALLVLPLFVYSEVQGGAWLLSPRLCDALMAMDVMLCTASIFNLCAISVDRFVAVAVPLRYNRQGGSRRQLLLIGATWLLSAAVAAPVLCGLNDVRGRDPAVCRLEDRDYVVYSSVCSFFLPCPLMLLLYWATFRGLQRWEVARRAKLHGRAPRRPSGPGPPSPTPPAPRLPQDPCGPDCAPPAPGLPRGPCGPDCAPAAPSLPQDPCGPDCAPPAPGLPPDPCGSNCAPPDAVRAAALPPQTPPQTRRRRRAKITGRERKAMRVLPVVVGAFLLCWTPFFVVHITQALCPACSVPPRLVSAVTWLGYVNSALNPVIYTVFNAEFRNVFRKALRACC

[40] = molecular target: Muscarinic acetylcholine receptor M4 (Homo sapiens) (UniProt P08173); details: Compound concentration 10.0 uM

Chain of Activin receptor type-2A (Homo sapiens) (P27037 whole entry): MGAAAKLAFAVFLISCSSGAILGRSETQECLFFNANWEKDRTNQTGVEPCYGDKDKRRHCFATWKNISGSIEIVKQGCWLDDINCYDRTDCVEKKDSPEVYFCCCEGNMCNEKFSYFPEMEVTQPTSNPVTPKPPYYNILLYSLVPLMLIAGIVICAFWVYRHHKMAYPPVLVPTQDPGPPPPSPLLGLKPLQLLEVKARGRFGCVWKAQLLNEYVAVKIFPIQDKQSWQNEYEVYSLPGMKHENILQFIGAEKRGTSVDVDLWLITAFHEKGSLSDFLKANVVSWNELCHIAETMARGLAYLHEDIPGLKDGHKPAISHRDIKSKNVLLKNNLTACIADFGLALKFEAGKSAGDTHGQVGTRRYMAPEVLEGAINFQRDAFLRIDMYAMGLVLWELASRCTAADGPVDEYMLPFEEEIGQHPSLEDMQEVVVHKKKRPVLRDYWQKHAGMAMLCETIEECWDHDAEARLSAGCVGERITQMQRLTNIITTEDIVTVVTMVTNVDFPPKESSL

Row | Structure (SMILES) | Ki [1] [nM] | residual activity [2] [%] | residual activity [3] [%] | residual activity [4] [%] | residual activity [5] [%] | residual activity [6] [%] | residual activity [7] [%] | residual activity [8] [%] | residual activity [9] [%] | residual activity [10] [%] | residual activity [11] [%] | residual activity [12] [%] | residual activity [13] [%] | residual activity [14] [%] | residual activity [15] [%] | residual activity [16] [%] | residual activity [17] [%] | residual activity [18] [%] | residual activity [19] [%] | residual activity [20] [%] | also measured
1 | O=C(O)c1cc(-c2ccc(C3CCNCC3)cc2)c2ccc(-c3ccc(C(F)(F)F)cc3)cc2c1 [PPTN] | 2560 | 100 | 100 | 100 | 100 | 100 | 85 | 100 | 100 | 100 | 96 | 97 | 100 | 100 | 100 | 100 | 100 | 100 | 83 | 100 | residual activity [21]: 100%; residual activity [22]: 100%; residual activity [23]: 100%; residual activity [24]: 92%; residual activity [25]: 100%; residual activity [26]: 100%; residual activity [27]: 100%; residual activity [28]: 100%; residual activity [29]: 100%; residual activity [30]: 100%; residual activity [31]: 100%; residual activity [32]: 100%; residual activity [33]: 100%; residual activity [34]: 100%; residual activity [35]: 100%; residual activity [36]: 100%; inhibition [37]: 33.6%; inhibition [38]: 7.95%; inhibition [39]: 10.4%; inhibition [40]: -4.96%
2 | Cc1c(C(=O)O)cc(-c2ccc(C3CCNCC3)cc2)c2ccc(-c3ccc(C(F)(F)F)cc3)cc12 [PPTN-NC] | 1840 | 100 | 87 | 100 | 100 | 100 | 96 | 100 | 100 | 100 | 100 | 100 | 100 | 100 | 100 | 100 | 100 | 100 | 84 | 100 | residual activity [21]: 100%; residual activity [22]: 100%; residual activity [23]: 100%; residual activity [24]: 100%; residual activity [25]: 100%; residual activity [26]: 100%; residual activity [27]: 100%; residual activity [28]: 100%; residual activity [29]: 98%; residual activity [30]: 100%; residual activity [31]: 100%; residual activity [32]: 100%; residual activity [33]: 100%; residual activity [34]: 100%; residual activity [35]: 95%; residual activity [36]: 100%; inhibition [37]: 30.1%; inhibition [38]: 6.6%; inhibition [39]: 8.42%; inhibition [40]: -5.54%
